The values that follow come from ChEMBL document CHEMBL5465560, “Selectivity Literature for EUbOPEN Chemogenomic Library” (2024).

The target in assay [1] is T1, Serine/threonine-protein kinase ULK3 (Homo sapiens) (UniProt Q6PHR2).
T1 sequence (whole entry): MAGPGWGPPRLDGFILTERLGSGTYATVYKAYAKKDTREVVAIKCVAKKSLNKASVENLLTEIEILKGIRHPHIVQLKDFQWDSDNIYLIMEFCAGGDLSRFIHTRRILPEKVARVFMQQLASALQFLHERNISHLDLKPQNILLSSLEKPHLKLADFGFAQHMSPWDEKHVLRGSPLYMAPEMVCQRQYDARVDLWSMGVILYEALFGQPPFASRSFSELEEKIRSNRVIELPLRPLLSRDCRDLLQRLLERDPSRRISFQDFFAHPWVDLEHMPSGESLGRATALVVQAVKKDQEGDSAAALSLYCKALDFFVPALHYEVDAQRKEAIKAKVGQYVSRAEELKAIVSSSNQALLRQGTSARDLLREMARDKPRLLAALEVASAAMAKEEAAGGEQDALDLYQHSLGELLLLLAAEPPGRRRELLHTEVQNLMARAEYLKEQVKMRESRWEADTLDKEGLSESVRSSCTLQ
Nature of the assay: Selectivity interaction (Kinase panel (KiNativ target engagement assay in Jurkat cells)) EUB0001635a ULK3. The assay is classed as cell-based. The following applies: at 1 µM.

The target in assay [2] is T2, Serine/threonine-protein kinase PLK4 (Homo sapiens) (UniProt O00444).
T2 sequence (whole entry): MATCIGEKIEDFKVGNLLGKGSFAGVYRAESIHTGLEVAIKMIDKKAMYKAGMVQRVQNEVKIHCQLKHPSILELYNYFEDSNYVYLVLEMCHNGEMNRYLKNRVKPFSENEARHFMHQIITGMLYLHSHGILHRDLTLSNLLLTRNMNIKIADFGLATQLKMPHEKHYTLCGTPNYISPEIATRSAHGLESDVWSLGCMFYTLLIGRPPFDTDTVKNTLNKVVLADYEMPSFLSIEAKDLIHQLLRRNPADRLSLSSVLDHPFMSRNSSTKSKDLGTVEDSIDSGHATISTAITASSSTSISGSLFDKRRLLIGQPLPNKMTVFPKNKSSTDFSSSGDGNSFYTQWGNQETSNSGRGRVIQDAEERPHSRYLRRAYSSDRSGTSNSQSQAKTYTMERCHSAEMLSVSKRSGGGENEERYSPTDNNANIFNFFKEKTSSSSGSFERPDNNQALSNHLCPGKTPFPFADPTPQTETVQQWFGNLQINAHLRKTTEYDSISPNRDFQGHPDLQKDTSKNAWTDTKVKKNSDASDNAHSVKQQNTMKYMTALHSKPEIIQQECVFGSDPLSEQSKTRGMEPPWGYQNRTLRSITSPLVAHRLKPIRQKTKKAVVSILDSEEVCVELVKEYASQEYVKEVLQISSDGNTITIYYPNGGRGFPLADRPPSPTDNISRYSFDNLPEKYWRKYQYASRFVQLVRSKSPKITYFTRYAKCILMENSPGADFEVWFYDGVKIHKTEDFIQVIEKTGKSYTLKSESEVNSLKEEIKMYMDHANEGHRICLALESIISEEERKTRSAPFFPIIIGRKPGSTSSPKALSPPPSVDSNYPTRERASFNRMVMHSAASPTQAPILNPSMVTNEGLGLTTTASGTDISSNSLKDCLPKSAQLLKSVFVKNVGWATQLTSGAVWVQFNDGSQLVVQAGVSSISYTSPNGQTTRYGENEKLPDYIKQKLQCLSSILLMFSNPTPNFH
Nature of the assay: Selectivity interaction (Ambit KINOMEscan and KiNATiv profiling in Jurkat cells) EUB0000090b PLK4. The assay is classed as cell-based. The following applies: at 1 µM.

The target of assay [3] is Serine/threonine-protein kinase NIM1 (Homo sapiens, UniProt Q8IY84). Nature of the assay: Selectivity interaction (KinomeScan (DiscoverX)) EUB0001619a NIM1K. The following applies: at 1 µM.
Sequence of Serine/threonine-protein kinase NIM1 (Q8IY84 whole entry): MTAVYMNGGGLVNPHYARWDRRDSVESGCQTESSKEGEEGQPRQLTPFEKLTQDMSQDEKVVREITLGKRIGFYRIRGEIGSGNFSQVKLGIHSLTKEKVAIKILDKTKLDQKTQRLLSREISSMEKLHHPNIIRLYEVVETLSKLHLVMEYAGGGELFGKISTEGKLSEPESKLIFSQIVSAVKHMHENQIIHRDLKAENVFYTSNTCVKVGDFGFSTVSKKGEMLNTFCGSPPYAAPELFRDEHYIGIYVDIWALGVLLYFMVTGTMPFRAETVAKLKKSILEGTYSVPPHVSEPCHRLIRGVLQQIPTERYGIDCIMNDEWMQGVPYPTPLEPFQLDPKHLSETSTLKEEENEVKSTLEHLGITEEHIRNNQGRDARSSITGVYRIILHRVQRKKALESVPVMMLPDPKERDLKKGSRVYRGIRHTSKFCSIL
For assay [4], the target named is T3, Serine/threonine-protein kinase TBK1 (Homo sapiens) (UniProt Q9UHD2).
T3 sequence (whole entry): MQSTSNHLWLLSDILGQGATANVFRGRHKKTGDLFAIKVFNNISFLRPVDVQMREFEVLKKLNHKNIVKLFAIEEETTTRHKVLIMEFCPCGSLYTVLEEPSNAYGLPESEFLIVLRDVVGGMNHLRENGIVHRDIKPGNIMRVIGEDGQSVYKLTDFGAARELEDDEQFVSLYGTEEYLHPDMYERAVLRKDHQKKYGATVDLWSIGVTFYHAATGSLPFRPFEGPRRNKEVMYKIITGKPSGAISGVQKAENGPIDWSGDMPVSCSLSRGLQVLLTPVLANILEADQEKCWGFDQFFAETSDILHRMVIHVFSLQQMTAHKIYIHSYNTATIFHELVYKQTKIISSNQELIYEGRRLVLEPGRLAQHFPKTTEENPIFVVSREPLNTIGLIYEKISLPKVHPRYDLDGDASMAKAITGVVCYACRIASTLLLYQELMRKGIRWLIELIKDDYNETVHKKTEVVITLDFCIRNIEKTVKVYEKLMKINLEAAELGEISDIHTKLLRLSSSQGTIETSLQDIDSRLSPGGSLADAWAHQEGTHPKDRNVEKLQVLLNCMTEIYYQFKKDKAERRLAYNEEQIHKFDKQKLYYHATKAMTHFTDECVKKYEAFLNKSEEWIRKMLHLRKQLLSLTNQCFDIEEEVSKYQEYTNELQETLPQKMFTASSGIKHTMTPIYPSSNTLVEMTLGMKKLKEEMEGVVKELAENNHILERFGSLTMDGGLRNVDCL
Kind of assay: Selectivity interaction (ActivX KiNativ screen (ex vivo kinase selectivity in human PBMCs)) EUB0001619a TBK1. The class given is cell-based. The following applies: PBMC, at 1 µM.

The target of assay [5] is Dual specificity mitogen-activated protein kinase kinase 2 (Homo sapiens) (UniProt P36507). Kind of assay: Selectivity interaction (ActivX KiNativ screen (kinase selectivity in THP-1 cell lysates)) EUB0000639a MAP2K2. The class given is subcellular. The following applies: lysate, at 5 µM.
Sequence of Dual specificity mitogen-activated protein kinase kinase 2 (Homo sapiens) (P36507 whole entry): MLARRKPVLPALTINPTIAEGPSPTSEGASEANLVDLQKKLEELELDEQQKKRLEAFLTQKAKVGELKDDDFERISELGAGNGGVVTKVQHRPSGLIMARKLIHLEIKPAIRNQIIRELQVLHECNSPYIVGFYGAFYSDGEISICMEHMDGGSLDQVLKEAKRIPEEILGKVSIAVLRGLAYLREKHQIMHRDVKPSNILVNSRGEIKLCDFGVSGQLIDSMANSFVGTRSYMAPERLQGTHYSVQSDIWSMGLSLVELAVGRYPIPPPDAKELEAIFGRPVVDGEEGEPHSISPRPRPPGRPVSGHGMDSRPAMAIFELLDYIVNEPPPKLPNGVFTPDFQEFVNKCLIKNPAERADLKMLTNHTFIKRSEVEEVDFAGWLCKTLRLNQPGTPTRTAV
The target in assay [6] is Dual specificity tyrosine-phosphorylation-regulated kinase 1A (Homo sapiens, UniProt Q13627). Nature of the assay: Selectivity interaction (Kinase panel (DSF assay)) EUB0001559a DYRK1A. In general terms: Differential scanning fluorimetry follows unfolding on heating by fluorescence.
The target of assay [7] is Dual specificity mitogen-activated protein kinase kinase 1 (Homo sapiens, UniProt Q02750). Nature of the assay: Selectivity interaction (KinomeScan (DiscoverX)) EUB0001550a MAP2K1. The following applies: at 1 µM.
Sequence of Dual specificity mitogen-activated protein kinase kinase 1 (Q02750 whole entry): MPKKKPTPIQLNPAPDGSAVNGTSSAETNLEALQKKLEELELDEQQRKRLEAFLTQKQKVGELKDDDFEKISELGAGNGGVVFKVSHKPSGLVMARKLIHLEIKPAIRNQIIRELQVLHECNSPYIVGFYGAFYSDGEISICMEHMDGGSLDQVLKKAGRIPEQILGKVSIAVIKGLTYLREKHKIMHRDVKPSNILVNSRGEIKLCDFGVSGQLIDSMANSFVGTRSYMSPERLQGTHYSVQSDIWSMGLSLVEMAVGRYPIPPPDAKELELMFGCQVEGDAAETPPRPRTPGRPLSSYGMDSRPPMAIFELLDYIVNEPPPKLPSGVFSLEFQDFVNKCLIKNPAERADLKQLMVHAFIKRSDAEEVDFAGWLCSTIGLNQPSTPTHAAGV
Assay [8] addresses Serine/threonine-protein kinase 32A (Homo sapiens) (UniProt Q8WU08). Kind of assay: Selectivity interaction (KinomeScan (DiscoverX)) EUB0000595a STK32A. The following applies: at 10 µM.
Assay [9] deals with Death-associated protein kinase 2 (Homo sapiens) (UniProt Q9UIK4). The following applies: at 10 µM.
Sequence of Death-associated protein kinase 2 (Homo sapiens) (Q9UIK4 whole entry, looked up): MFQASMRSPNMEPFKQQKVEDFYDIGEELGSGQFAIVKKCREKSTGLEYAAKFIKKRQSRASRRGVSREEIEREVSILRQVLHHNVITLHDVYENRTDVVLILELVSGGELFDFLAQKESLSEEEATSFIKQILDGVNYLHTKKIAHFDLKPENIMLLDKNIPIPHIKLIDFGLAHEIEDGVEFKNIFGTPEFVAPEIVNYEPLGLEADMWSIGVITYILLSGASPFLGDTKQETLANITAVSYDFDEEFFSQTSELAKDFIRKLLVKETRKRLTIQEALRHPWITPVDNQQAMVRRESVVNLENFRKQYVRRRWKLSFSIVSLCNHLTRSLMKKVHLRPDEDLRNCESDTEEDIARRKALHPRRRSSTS
The target of assay [10] is Serine/threonine-protein kinase 25 (Homo sapiens) (UniProt O00506). Nature of the assay: Selectivity interaction (KinomeScan (DiscoverX)) EUB0000595a STK25. The following applies: at 10 µM.
Sequence of Serine/threonine-protein kinase 25 (Homo sapiens) (O00506 whole entry, looked up): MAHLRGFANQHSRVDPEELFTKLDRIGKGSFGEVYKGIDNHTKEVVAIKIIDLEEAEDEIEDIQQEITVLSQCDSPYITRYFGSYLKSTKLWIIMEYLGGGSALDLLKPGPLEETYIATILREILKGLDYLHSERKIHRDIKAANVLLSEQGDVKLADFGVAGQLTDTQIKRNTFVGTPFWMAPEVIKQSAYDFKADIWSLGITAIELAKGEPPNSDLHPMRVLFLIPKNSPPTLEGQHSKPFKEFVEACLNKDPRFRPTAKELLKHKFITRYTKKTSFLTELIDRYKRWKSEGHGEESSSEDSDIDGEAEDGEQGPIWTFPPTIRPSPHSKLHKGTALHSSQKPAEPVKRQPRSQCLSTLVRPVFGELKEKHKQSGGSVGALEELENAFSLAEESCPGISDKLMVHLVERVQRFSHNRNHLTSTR

Sequence of Serine/threonine-protein kinase 32A (Homo sapiens) (Q8WU08 whole entry): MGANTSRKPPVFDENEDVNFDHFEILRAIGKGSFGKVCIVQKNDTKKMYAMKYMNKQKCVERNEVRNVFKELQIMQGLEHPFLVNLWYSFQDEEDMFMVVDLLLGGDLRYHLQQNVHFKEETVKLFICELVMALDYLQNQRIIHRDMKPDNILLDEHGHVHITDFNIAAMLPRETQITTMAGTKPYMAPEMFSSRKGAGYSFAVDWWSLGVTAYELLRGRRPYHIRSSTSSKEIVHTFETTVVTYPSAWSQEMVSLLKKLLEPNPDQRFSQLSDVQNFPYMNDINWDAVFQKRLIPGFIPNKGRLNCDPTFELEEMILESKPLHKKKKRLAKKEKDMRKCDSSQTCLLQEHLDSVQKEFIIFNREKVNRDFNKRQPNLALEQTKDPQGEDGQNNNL

With `C=CC(=O)Nc1ccc(C(=O)Nc2[nH]nc3c2CN(C(=O)N[C@H](CN(C)C)c2ccccc2)C3(C)C)cc1`, the % of engagement in assay [1] (Selectivity number of off-targets 0.0, Selectivity number of targets 233.0, Source Knowledge https://www.sciencedirect.com/science/article/pii/S2451945619300674?via%3Dihub) is -7.1%; in [1], -1.1%.

Consider `CN(C)C/C=C/C(=O)Nc1ccc(C(=O)N2CCCC(Nc3ncc(Cl)c(-c4c[nH]c5ccccc45)n3)C2)cc1` (stereo unspecified), for which the % of control in [2] amounted to 82%.

As to `N#Cc1cccc(-c2c[nH]c3ncnc(N4CCOCC4)c23)c1`, the % of control in assay [3] stood at 80%. Also, in assay [4], the % of inhibition came to 16%.

In the case of `CC[C@@H]1[C@H](F)C(=O)N[C@@H]1COc1nccc2cc(C(N)=O)c(OC)cc12` [ZIMLOVISERTIB], the % of inhibition in assay [5] is -10.6%.

The compound `CN(C(=O)c1cnn2cccnc12)c1cc2c(cc1N1CCOCC1)C(=O)N(C[C@@H](F)C(C)(C)O)C2` yielded a dTM in assay [6] of -0.3 K.

With `CN(C)CC#Cc1ccc2[nH]c3c(c2c1)-c1nc(N)ncc1CCC3`, in assay [7], the % of control was found to be 4.5%.

Regarding `COCC(=O)NC/C=C/c1ccc2ncnc(Nc3ccc(Oc4ccc(C)nc4)c(C)c3)c2c1` [CP-724714], the results for the % of control in [8], in assay [9] and in assay [10] were 100%, 89% and 94%, respectively.
